According to PubChem BioAssay (NCI):
Where “and” joins values, the source holds several entries; their conditions need not be identical. Equal entries are not always repeated.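 Method: 48-hour compound exposure of cells in 96-well plates, five concentrations, linear interpolation of endpoints. GI50 is the concentration that inhibits growth by half. TGI is the concentration that stops growth completely.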

Assays:
Test in all cases: DTP human tumour cell line panel, 48 h
[1] = system: HOP-92 NSCLC
[2] = system: LOX IMVI melanoma
[3] = system: OVCAR-5 ovarian
[4] = system: SK-MEL-28 melanoma
[5] = system: SK-MEL-2 melanoma
[6] = system: BT-549 breast
[7] = system: HCC-2998 colon
[8] = system: RXF 393 renal
[9] = system: PC-3 prostate
[10] = system: EKVX NSCLC

SMILES | GI50 [1] [nM] | TGI [1] | GI50 [2] [nM] | TGI [2] | GI50 [3] [µM] | TGI [3] | GI50 [4] [µM] | TGI [4] | GI50 [5] [nM] | TGI [5] | GI50 [6] [µM] | TGI [6] [µM] | GI50 [7] [nM] | TGI [7] | GI50 [8] [µM] | TGI [8] | GI50 [9] [nM] | TGI [9] | TGI [10] | GI50 [10] [nM]
COc1cc(CNC(=O)CCSc2nc3ccccc3c(=O)n2Cc2cc(OC)c(OC)c(OC)c2)cc(OC)c1OC | 5700 | 23.9 µM | 7050 | > 100 µM | 9.38 | > 100 µM | 6.69 | > 100 µM | 2820 | 8.14 µM | 4.9 | 44.1 | 13000 | 94.6 µM | 5.31 | 26 µM | 10800 | > 100 µM | – | –
NC(=S)N/N=C\c1nccc2c(C(F)(F)C(F)(F)C(F)(F)F)cccc12 | 116 | 1.44 µM | 72.5 | 1.34 µM | 0.123 | 16.8 µM | 0.25 | 3.26 µM | 388 | 3.23 µM | 0.313 | 11.7 | 229 | 4.48 µM | 0.113 | 1.26 µM | 66.1 | > 22.5 µM | – | –
COc1cc(CC2CC(c3ccc4c(c3)OCO4)OC2=O)cc(OC)c1OC (stereo not drawn) | – | > 100 µM | – | > 100 µM | – | > 100 µM | – | > 100 µM | – | – | – | – | – | > 100 µM | – | > 100 µM | – | > 100 µM | > 100 µM | –
Cc1cc(Cl)ccc1NC(=O)NC(C)(C)COC(=O)Nc1cccc(Cl)c1 | 3480 | 26.4 µM | – | – | 8.1 | > 100 µM | 22.3 | > 100 µM | 8080 | 34.1 µM | 21.4 | > 100 | 11300 | > 100 µM | 17.5 | 78.6 µM | 3660 | 52.1 µM | – | –
O=[N+]([O-])c1ccc(NC(=S)N/N=C(\c2ccccc2)c2ccccn2)cc1 | 1320 | 3.39 µM and 2.6 µM | 1370 | 2.89 µM and 5.03 µM | 0.0772 | 2.58 µM and 4.58 µM | 1.38 | 2.9 µM and 2.69 µM | 2050 | 4.44 µM and 3.69 µM | – | 3.01 | 2100 | 4.26 µM and 2.83 µM | – | 2.83 µM and 3.06 µM | 1160 | 2.91 µM and 2.54 µM | 3.45 µM and 2.19 µM | 1870
Cc1ccc([N+](=O)[O-])cc1NC(=O)C(=O)C1CCC2=C(Sc3ccccc3N2)C1=O (stereo not drawn) | – | > 100 µM | – | > 100 µM | – | > 100 µM | – | > 100 µM | – | > 100 µM | – | > 100 | – | > 100 µM | – | > 100 µM | – | > 100 µM | > 100 µM | –
C=C(C)[C@@H]1CC[C@]2(C)[C@H](CC=C3[C@@H]4[C@H](C)[C@@H](C)CC[C@]4(CO)CC[C@]32C)[C@@]1(C)CCCN | 1040 | 3.46 µM | 859 | 1.57 µM | 1.76 | 6.15 µM | 0.952 | 1.67 µM | 1730 | 5.04 µM | 2.56 | 9.23 | 873 | 1.62 µM | 0.826 | 1.59 µM | 1650 | 7.48 µM | 2.94 µM | 1080
O=C(Nc1cccc([N+](=O)[O-])c1)c1cc2ccccc2cc1O | 422 | 4.41 µM | 1870 | 7.69 µM | 2.55 | 10.3 µM | 3.23 | > 100 µM | 876 | 2.83 µM | 1.55 | 5.39 | 2160 | 6.11 µM | 2.57 | 9.05 µM | 1490 | > 30.5 µM | 8.2 µM | 1870
CN(C)CCNc1c2c(c(NCCN(C)C)c3c(CO)c[nH]c13)C(=O)c1ccccc1C2=O | 2890 | 13.1 µM | 1970 | 10 µM | 12.7 | 33.5 µM | 5.01 | 10.6 µM | 11200 | 23.2 µM | 8.23 | 23.5 | 1430 | 5.46 µM | 3.83 | 12.5 µM | 2600 | 26.8 µM | 9.34 µM | 3050
CC(C)N(Cc1ccccc1)S(=O)(=O)c1n[nH]c(C(C)(C)C)n1 | – | > 100 µM | – | > 100 µM | – | > 100 µM | – | > 100 µM | – | > 100 µM | – | > 100 | – | – | – | > 100 µM | – | > 100 µM | > 100 µM | –
Cc1ccc(S(=O)(=O)c2ccsc2N)cc1 | 73900 | > 100 µM | > 100000 | > 100 µM | > 100 | > 100 µM | > 100 | > 100 µM | > 100000 | > 100 µM | > 100 | > 100 | > 100000 | > 100 µM | 63.9 | > 100 µM | > 100000 | > 100 µM | – | –
O=c1oc2cc(OS(=O)(=O)c3ccccc3)ccc2c2c1CCCCC2 | – | – | 8710 | > 100 µM | > 100 | > 100 µM | > 100 | > 100 µM | > 100000 | > 100 µM | 5.44 | > 100 | 32100 | > 100 µM | 4.55 | > 100 µM | 2610 | > 100 µM | – | –
CCC1OC(/C(C)=C/C(C)/C=C/C2C(C)C2/C=C/C2OC(CC(=O)O)CC(O)C2O)CC=C1C (stereo not drawn) | – | – | > 50000 | > 50 µM | > 50 | > 50 µM | > 50 | > 50 µM | > 50000 | > 50 µM | > 50 | > 50 | > 50000 | > 50 µM | > 50 | > 50 µM | > 50000 | > 50 µM | > 50 µM | > 50000
CC(C)(O)CCC(O)C(C)(O)C1CCC2(O)C3=CC(=O)C4(O)CC(O)C(O)CC4(C)C3CCC12C (stereo not drawn) (tested in a mixture with another compound) | – | > 100 µM | – | > 100 µM | – | > 100 µM | – | > 100 µM | – | > 100 µM | – | > 100 | – | – | – | > 100 µM | – | > 100 µM | > 100 µM | –
